Substitutions are numbered along the chain they refer to. In names and notes the source's numbering stands.
T1: S. cerevisiae Mre11-Rad50 (MR) complex (Saccharomyces cerevisiae, UniProt P12753, K192A/K195A/K196A, form not given)
T1 construct: full-length Rad50 and Mre11 (C-terminal 1xFLAG on Mre11 given for MR-EQ), purified from yeast; 2:2 complex, no Xrs2; with Double-strand break repair protein MRE11
T1 sequence (P12753 1-1312 K192A/K195A/K196A): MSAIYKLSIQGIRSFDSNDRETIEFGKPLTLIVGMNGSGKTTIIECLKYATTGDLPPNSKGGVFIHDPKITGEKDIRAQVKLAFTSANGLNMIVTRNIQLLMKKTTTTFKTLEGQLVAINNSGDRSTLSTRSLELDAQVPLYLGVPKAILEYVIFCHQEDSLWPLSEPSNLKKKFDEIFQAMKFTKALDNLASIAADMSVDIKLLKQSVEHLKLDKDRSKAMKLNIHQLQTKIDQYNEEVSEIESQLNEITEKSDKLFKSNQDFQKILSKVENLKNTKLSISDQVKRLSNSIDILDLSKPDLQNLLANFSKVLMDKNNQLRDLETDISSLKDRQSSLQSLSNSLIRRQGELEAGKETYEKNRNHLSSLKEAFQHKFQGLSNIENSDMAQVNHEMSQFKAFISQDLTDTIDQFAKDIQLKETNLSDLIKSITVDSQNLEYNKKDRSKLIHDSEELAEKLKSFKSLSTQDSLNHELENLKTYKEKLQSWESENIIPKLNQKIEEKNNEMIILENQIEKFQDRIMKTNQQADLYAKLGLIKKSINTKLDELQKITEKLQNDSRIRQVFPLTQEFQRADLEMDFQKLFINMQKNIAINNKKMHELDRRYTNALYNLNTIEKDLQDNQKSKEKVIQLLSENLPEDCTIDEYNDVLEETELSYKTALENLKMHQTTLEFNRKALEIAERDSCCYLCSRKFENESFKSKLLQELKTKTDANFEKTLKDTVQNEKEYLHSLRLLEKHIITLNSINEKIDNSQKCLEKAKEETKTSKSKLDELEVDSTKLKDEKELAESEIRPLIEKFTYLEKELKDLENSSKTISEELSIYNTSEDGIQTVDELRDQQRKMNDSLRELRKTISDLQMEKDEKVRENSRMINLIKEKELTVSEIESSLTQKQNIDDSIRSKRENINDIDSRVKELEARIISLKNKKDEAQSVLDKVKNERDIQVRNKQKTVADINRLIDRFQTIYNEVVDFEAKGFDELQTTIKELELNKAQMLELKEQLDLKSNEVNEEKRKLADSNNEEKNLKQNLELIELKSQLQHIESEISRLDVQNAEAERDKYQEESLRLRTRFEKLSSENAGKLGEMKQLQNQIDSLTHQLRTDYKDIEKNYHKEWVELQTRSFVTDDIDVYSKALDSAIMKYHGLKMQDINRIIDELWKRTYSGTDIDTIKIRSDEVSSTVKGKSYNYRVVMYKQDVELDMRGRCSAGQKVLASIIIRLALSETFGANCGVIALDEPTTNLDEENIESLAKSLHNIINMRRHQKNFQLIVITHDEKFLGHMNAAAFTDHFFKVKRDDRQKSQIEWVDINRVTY
T1 sequence (P32829 1-692 partner): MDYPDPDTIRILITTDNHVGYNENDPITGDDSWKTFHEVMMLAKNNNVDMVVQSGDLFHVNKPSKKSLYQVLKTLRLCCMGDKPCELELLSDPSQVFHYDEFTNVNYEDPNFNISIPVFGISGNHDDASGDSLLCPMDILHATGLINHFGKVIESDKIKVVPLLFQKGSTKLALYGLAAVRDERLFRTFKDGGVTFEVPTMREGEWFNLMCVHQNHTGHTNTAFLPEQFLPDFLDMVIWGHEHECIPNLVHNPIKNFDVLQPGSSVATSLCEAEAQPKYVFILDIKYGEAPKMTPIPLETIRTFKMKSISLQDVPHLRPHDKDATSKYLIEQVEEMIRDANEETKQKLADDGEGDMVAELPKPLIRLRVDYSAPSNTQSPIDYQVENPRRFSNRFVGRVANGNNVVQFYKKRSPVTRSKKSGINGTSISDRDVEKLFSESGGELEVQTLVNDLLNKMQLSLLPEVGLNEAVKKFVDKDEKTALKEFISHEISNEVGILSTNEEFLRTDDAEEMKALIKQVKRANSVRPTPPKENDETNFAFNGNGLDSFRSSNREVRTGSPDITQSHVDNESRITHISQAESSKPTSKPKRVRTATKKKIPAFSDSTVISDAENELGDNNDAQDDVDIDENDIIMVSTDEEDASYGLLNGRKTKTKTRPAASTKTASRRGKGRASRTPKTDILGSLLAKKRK

T2: S. cerevisiae Mre11-Rad50 (MR) complex (Saccharomyces cerevisiae, UniProt P12753, E1235Q, form not given)
T2 construct: full-length Rad50 and Mre11 (C-terminal 1xFLAG on Mre11 given for MR-EQ), purified from yeast; 2:2 complex, no Xrs2; with Double-strand break repair protein MRE11
T2 sequence (P12753 1-1312 E1235Q): T1 sequence (P12753 1-1312 K192A/K195A/K196A) with A192K, A195K, A196K, E1235Q
T2 sequence (P32829 1-692 partner): T1 sequence (P32829 1-692 partner)

T3: S. cerevisiae Rad50-E1235Q (R^EQ of the purified MR^EQ complex) (S. cerevisiae, UniProt P12753 1-1312, E1235 residue of Rad50 was mutated to Q)
T3 construct: Rad50, S. cerevisiae; residues 239-1089 (coiled coil arm and Zn hook) are said to be flexible and not traced; also called Rad50-EQ; source: S. cerevisiae, purified from yeast extracts together with Mre11-FLAG (FLAG-Agarose, Heparin-Sepharose, gel filtration)
T3 sequence: T1 sequence (P12753 1-1312 K192A/K195A/K196A) with A192K, A195K, A196K, E1235Q

B1: S. cerevisiae Mre11 with a C-terminal 1xFLAG tag (Mre11 of the purified MR^EQ complex) (enzyme)
chain: T1 sequence (P32829 1-692 partner)
notes: Mre11, S. cerevisiae; residues 413-441 and 508-692 are said to be flexible and not traced; Two symmetry-related Mre11 subunits stand in the structure; also called M of MR^EQ; source: S. cerevisiae, purified from yeast extracts together with Rad50-E1235Q (FLAG-Agarose, Heparin-Sepharose, gel filtration); not shown: 1xFLAG, C-terminal, kept

Tests used:
[1] = biological target: T1, S. cerevisiae Mre11-Rad50 (MR) complex; assay: ATP hydrolysis, radiolabelled phosphate by thin-layer chromatography; format: biochemical; conditions: 0-2 uM MR, ss and dsDNA, MgCl2, 90 min; labelled compound
[2] = biological target: T2, S. cerevisiae Mre11-Rad50 (MR) complex; assay: cryo-EM structure, […] Å; format: binding; conditions: with 83-mer dsDNA, MgCl2 and MnCl2; ATP bound at Walker A/B interface of Rad50 dimer; hydrolysis-deficient mutant
[3] = biological target: T3, S. cerevisiae Rad50-E1235Q (R^EQ of the …); assay: cryo-EM structure; purified MR^EQ incubated with a 83-mer dsDNA in the presence of ATP, MgCl2 and MnCl2; 3.2 Å; conditions: both partners purified

Row | Molecule | ATP hydrolysis, radiolabelled phosphate by thin-layer chromatography [1] | cryo-EM structure, 3.2 Å [2] | binding result [3]
1 | Nc1ncnc2c1ncn2[C@@H]1O[C@H](COP(=O)(O)OP(=O)(O)OP(=O)(O)O)[C@@H](O)[C@H]1O [ATP] | Rad50–3KA, Rad50-K60A R1201A and Rad50-R131A R1201A were as defective as the Rad50-EQ mutant | MR^EQ was incubated with a 83-mer double stranded DNA (dsDNA) in the presence of ATP | 
2 | B1 |  |  | binds
